Assays:
[1] = In vivo pharmacokinetics in rats, single intravenous injection or oral gavage; conditions: male, SD, plasma, Rat; for Vd: read-out: Vss
Protocol: The in vivo pharmacokinetics in rats were evaluated via a single intravenous injection or oral gavage administration in this test example. • 1. Test Methods and Conditions: Male SD rats were fasted overnight and administered a single intravenous dose of 2 mg/kg or 1 mg/kg of the test compound (solvent for Intravenous administration was 5% DMSO/10% Solutol® HS 15/10% EtOH/75% saline, with a dosing volume of 5 mL/kg) and an oral gavage dose of 10 mg/kg or 5 mg/kg of the test compound (solvent for administration was 0.5% CMC-Na, with a dosing volume of 10 mL/kg), respectively. • 2. Sampling Information: Blood samples (0.2 mL) were collected from the retroorbital venous plexus at the designated time points: 0.25, 0.5, 1.0, 2.0, 3.0, 4.0, 6.0, 8.0, and 24 hours before and after dosing (a 5 min sampling point was added for the intravenous administration group), respectively. The samples were placed in EDTA-K2 tubes and centrifuged at 11,000 rpm for 5 minutes. Plasma was separated and frozen at -20°C. • 3. Assay Information: LC/MS/MS was used to determine the concentration of the parent drug in rat/mouse plasma following intravenous and oral gavage administration of the test compound. Pharmacokinetic parameters in rat/mouse plasma were calculated for both administration routes, and the bioavailability of each compound in rats was also calculated. Table 5: Intravenous Pharmacokinetic Information of Representative Compounds

[2] = target: human Nav1.8 sodium channel (Homo sapiens, UniProt Q9Y5Y9); experiment: Blocking activity on sodium channel 1.8 (Nav1.8), whole-cell manual patch clamp; type: cell-based; conditions: for inhibition at 0.001 µM: read-out: inhibition Percent @1 nM, 1 nM compound; for inhibition at 0.01 µM: read-out: inhibition Percent @10 nM, 10 nM compound
[3] = intravenous, single dose 2 mg/kg or 1 mg/kg (figure not given)

Sequence of human Nav1.8 sodium channel (Q9Y5Y9 whole entry): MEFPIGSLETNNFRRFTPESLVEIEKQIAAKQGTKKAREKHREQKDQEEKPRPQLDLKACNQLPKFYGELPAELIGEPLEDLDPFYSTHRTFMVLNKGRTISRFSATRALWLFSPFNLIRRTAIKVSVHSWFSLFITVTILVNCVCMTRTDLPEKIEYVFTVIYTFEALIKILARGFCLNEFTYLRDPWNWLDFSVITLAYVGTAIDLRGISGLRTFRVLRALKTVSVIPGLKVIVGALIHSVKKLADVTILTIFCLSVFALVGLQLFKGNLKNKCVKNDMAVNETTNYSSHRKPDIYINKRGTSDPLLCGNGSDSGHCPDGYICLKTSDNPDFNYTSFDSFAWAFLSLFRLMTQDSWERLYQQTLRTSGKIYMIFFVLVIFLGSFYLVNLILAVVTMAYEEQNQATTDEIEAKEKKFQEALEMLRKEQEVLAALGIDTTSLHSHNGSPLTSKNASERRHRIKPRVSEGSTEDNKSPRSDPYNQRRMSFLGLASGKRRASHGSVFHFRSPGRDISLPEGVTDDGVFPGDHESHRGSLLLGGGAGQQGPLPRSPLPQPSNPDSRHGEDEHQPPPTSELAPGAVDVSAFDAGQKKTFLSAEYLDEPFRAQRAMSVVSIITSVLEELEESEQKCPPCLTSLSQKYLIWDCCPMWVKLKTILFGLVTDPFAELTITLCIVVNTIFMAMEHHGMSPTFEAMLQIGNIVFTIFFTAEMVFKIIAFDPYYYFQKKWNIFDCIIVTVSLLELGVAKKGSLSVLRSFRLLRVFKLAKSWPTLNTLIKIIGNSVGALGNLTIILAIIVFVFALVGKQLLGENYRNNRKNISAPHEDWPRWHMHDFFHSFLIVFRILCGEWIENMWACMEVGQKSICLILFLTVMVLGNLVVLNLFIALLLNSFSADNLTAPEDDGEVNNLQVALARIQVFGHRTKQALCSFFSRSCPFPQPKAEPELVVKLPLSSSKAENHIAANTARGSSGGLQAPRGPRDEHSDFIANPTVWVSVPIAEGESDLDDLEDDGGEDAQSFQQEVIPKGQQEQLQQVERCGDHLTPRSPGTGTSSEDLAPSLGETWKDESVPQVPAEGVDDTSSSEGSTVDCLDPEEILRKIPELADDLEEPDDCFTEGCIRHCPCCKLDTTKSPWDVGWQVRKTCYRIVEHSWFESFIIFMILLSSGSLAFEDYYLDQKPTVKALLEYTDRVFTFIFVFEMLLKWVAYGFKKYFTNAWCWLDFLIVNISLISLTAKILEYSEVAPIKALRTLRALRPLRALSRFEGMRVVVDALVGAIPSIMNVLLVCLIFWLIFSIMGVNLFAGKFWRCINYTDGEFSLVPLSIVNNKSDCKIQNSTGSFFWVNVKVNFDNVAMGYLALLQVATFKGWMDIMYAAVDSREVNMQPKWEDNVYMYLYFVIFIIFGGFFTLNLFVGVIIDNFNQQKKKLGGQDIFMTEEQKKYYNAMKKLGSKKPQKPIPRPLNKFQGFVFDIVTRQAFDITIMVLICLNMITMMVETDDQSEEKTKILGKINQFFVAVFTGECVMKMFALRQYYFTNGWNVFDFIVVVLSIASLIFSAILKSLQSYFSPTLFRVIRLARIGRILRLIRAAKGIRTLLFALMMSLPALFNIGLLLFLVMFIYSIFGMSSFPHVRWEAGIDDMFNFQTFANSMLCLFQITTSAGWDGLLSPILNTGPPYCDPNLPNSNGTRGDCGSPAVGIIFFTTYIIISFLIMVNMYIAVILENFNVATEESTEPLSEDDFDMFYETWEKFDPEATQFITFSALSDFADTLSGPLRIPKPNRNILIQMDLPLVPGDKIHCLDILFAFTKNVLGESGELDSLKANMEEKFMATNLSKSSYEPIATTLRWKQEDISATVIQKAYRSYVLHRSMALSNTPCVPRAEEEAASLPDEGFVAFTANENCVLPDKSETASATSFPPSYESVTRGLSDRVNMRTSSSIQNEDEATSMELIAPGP

Cc1nc(N2CCCC(F)(F)CC2)c(C(=O)Nc2ccc(F)c(C(N)=NO)c2)cc1Cl [Compound I-1, 5-chloro-2-(4,4-difluoroazepan-1-yl)-N-(4-fluoro-3-(N'-hydroxyamidino)phenyl)-6-met hylnicotinamide]
AUC(0-t) [1, 3]: 1290 ng·h/mL
clearance [1, 3]: 29.6 mL/min/kg
half-life [1, 3]: 0.723 h
Vd [1, 3]: 0.638 L/kg
AUC(0-t) ([1]; oral gavage, 10mg/kg): 546 ng·h/mL
Cmax ([1]; oral gavage, 10mg/kg): 433 ng/mL
Tmax ([1]; oral gavage, 10mg/kg): 0.5 h
half-life ([1]; oral gavage, 10mg/kg): 1.49 h
bioavailability ([1]; oral gavage, 10mg/kg): 8.7%
inhibition at 0.001 µM [2]: 71%

CC(C)c1nc(N2CCCC(F)(F)CC2)c(C(=O)Nc2ccc(F)c(C(N)=NO)c2)cc1Cl [Compound I-24, 5-chloro-2-(4,4-difluoroazepan-1-yl)-N-(4-fluoro-3-(N'-hydroxyamidino)phenyl)-6-isop ropylnicotinamide]
AUC(0-t) [1, 3]: 1260 ng·h/mL
clearance [1, 3]: 12.8 mL/min/kg
half-life [1, 3]: 2 h
Vd [1, 3]: 1.38 L/kg
AUC(0-t) ([1]; oral gavage, 5mg/kg): 1950 ng·h/mL
Cmax ([1]; oral gavage, 5mg/kg): 244 ng/mL
Tmax ([1]; oral gavage, 5mg/kg): 2 h
half-life ([1]; oral gavage, 5mg/kg): 2.73 h
bioavailability ([1]; oral gavage, 5mg/kg): 30.9%
inhibition at 0.001 µM [2]: 56%

NC(=NO)c1cc(NC(=O)c2cc(Cl)c(C(F)(F)F)cc2N2CCCC(F)(F)CC2)ccc1F [Compound I-33, 5-chloro-2-(4,4-difluoroazepan-1-yl)-N-(4-fluoro-3-(N'-hydroxyamidino)phenyl)-4-(trifluoromethyl)benzamide]
AUC(0-t) [1, 3]: 2270 ng·h/mL
clearance [1, 3]: 7.44 mL/min/kg
half-life [1, 3]: 2.67 h
Vd [1, 3]: 1.16 L/kg
AUC(0-t) ([1]; oral gavage, 5mg/kg): 8640 ng·h/mL
Cmax ([1]; oral gavage, 5mg/kg): 623 ng/mL
Tmax ([1]; oral gavage, 5mg/kg): 6 h
half-life ([1]; oral gavage, 5mg/kg): 5.12 h
bioavailability ([1]; oral gavage, 5mg/kg): 38.9%
inhibition at 0.001 µM [2]: 86%

NC(=NO)c1cc(NC(=O)c2cc(Cl)c(C(F)(F)F)nc2N2CCCC(F)(F)CC2)ccc1F [Compound I-36, 5-chloro-2-(4,4-difluoroazepan-1-yl)-N-(4-fluoro-3-(N'-hydroxyamidino)phenyl)-6-(trifluoromethyl)nicotinamide]
AUC(0-t) [1, 3]: 4440 ng·h/mL
clearance [1, 3]: 3.91 mL/min/kg
half-life [1, 3]: 3.28 h
Vd [1, 3]: 0.823 L/kg
AUC(0-t) ([1]; oral gavage, 5mg/kg): 4410 ng·h/mL
Cmax ([1]; oral gavage, 5mg/kg): 386 ng/mL
Tmax ([1]; oral gavage, 5mg/kg): 4.3 h
half-life ([1]; oral gavage, 5mg/kg): 3.15 h
bioavailability ([1]; oral gavage, 5mg/kg): 38.9%
inhibition at 0.001 µM [2]: 50%

N=C(N)c1cc(NC(=O)c2cc(Cl)c(C(F)F)nc2C2CCCC(F)(F)CC2)ccc1F (centres unmarked) [Compound I-39, N-(3-amidino-4-fluorophenyl)-5-chloro-2-(4,4-difluorocycloheptan-1-yl)-6-difluorome thylnicotinamide]
inhibition at 0.001 µM [2]: 51%

[2H]Cc1nc(N2CCCC(F)(F)CC2)c(C(=O)Nc2ccc(F)c(C(N)=NO)c2)cc1Cl [Compound I-42, 5-chloro-2-(4,4-difluoroazepan-1-yl)-N-(4-fluoro-3-(N'-hydroxyamidino)phenyl)-6-deu teromethylnicotinamide]
inhibition at 0.001 µM [2]: 65%

CN(C)c1nc(N2CCCC(F)(F)CC2)c(C(=O)Nc2ccc(F)c(C(N)=NO)c2)cc1Cl [Compound I-43, 5-chloro-2-(4,4-difluoroazepan-1-yl)-6-(dimethylamino)-N-(4-fluoro-3-(N'-hydroxyamidino)phenyl)nicotinamide]
inhibition at 0.001 µM [2]: 55%

NC(=NO)c1cc(NC(=O)c2cc(Cl)c(CF)nc2N2CCCC(F)(F)CC2)ccc1F [Compound I-44, 5-chloro-2-(4,4-difluoroazepan-1-yl)-N-(4-fluoro-3-(N'-hydroxyamidino)phenyl)-6-(fluoromethyl)nicotinamide]
inhibition at 0.001 µM [2]: 32%

CCc1nc(N2CCCC(F)(F)CC2)c(C(=O)Nc2ccc(F)c(C(N)=NO)c2)cc1Cl [Compound I-45, 5-chloro-2-(4,4-difluoroazepan-1-yl)-6-ethyl-N-(4-fluoro-3-(N'-hydroxyamidino)pheny I)nicotinamide]
inhibition at 0.001 µM [2]: 94%

NC(=NO)c1cc(NC(=O)c2cc(Cl)c(N3CCCC3)nc2N2CCCC(F)(F)CC2)ccc1F [Compound I-46, 5-chloro-2-(4,4-difluoroazepan-1-yl)-N-(4-fluoro-3-(N'-hydroxyamidino)phenyl)-6-(pyrrolidinyl)nicotinamide]
inhibition at 0.01 µM [2]: 50%

NC(=NO)c1cc(NC(=O)c2cc(Cl)c(Cl)cc2N2CCCC(F)(F)CC2)ccc1F [Compound I-47, 4,5-dichloro-2-(4,4-difluoroazepan-1-yl)-N-(4-fluoro-3-(N'-hydroxyamidino)phenyl)be nzamide]
inhibition at 0.01 µM [2]: 80%

NC(=NO)c1cccc(NC(=O)c2cc(Cl)c(C(F)(F)F)cc2N2CCCC(F)(F)CC2)c1 [Compound I-48, 5-chloro-2-(4,4-difluoroazepan-1-yl)-N-(3-(N'-hydroxyamidino)phenyl)-4-trifluoromet hylbenzamide]
inhibition at 0.01 µM [2]: 77%

NC(=NO)c1cccc(NC(=O)c2c(N3CCCC(F)(F)CC3)ccc(Cl)c2C(F)(F)F)c1 [Compound I-49, 5-chloro-2-(4,4-difluoroazepan-1-yl)-N-(3-(N'-hydroxyamidino)phenyl)-6-(trifluoromethyl)benzamide]
inhibition at 0.01 µM [2]: 77%

COc1c([C@H]2[C@H](C(=O)Nc3ccnc(C(N)=O)c3)O[C@@](C)(C(F)(F)F)[C@H]2C)ccc(F)c1F [VX-548, reference compound]
AUC(0-t) [1, 3]: 804 ng·h/mL
clearance [1, 3]: 20.7 mL/min/kg
half-life [1, 3]: 0.67 h
Vd [1, 3]: 0.92 L/kg
AUC(0-t) ([1]; oral gavage, 5mg/kg): 518 ng·h/mL
Cmax ([1]; oral gavage, 5mg/kg): 157 ng/mL
Tmax ([1]; oral gavage, 5mg/kg): 0.5 h
half-life ([1]; oral gavage, 5mg/kg): 2.68 h
bioavailability ([1]; oral gavage, 5mg/kg): 14%
IC50 [2]: 0.34 ± 0.04 nM

Source: EP4700018A1, “NAV1.8 INHIBITORS, PREPARATION METHOD THEREFOR AND USE THEREOF” (Shanghai Institute of Materia Medica, Chinese Academy of …, priority 2023, dated 2024)
